Structures can show the parent of a compound that is named as a salt. Where two headings read alike, the source gives them in different places.

This passage reports Ki and IC50 results from patent publication US9090535B2, “Hydroxylated tricyclic compounds” (Nektar Therapeutics, priority 2010, dated 2015).

The target of series [1] is T1, human norepinephrine transporter (hNET) (Homo sapiens, UniProt P23975).
T1 construct: expressed in transfected cells; host or cells: MDCK cells
As to the kind of experiment: Binding affinity to human norepinephrine transporter (hNET), [3H]Nisoxetine displacement. The note with it: membranes from MDCK cells expressing hNET, [3H]Nisoxetine 2 nM, read-out: NET binding, Ki. The protocol:
The binding affinities of certain compounds disclosed herein to the hNET were measured using competitive radioligand displacement assays in membranes prepared from MDCK cells that express the human norepinephrine transporter. Competition binding experiments were conducted by incubating hNET membranes with [^3H] Nisoxetine (2 nM), in the presence of increasing concentrations of test compounds. Incubations were carried out at 4° C. for 60 minutes in buffer containing 50 mM Tris HCl, 120 mM NaCl and 5 mM KCl (pH 7.4). The binding reaction was terminated by rapid filtration, membranes were washed and membrane-bound radioactivity was measured using a scintillation counter. Non-specific binding was measured in the presence of excess (10 μM) clomipramine as the unlabelled ligand and this value was subtracted from the total binding to yield the specific binding at each test compound concentration.
IC50 values were obtained from non-linear regression analysis of concentration-versus specific binding plots. Ki values were calculated from the IC50 values using the Cheng Prusoff correction and experimentally determined […] values for the radioligand under these assay conditions.

The subject of series [2] is sodium channels (sodium current INa) in rat dorsal root ganglion (DRG) cells. Description: Sodium channel assay, whole-cell patch clamp of sodium current in isolated DRG cells. In kind it is cell-based. The text has this:
The effect of compounds disclosed herein on sodium channels may be evaluated in vitro to determine their blocking properties using the whole-cell patch clamp method in isolated cardiac (human atrial myocytes) and neuronal (rat dorsal root ganglion) cells. The example below refers to a sodium channel assay using neuronal cells.
Electrophysiologic patch clamp recordings of the sodium current in isolated rat dorsal root ganglion (DRG) cells were used to measure the sodium channel blocking properties of certain compounds disclosed herein. DRG cells were isolated according to the method of Blair and Bean (J Neurosci, 22: pp. 10277-10290, 2002) and plated on treated glass coverslips. For measuring the sodium current, cells were perfused with an external solution that consists of (in mmol/L): 115 TMA chloride, 10 NaCl, 5 CsCl, 1.8 CaCl2, 1.2 MgCl2, 10 HEPES, 11 dextrose, pH adjusted to 7.4 with TMA-OH. The chemical composition of the internal solution was (in mmol/L): 115 CsF, 20 CsCl, 10 NaF, 10 HEPES, 5 EGTA; pH adjusted to 7.2 with CsOH. Currents were measured using the whole-cell variant of the patch clamp method (Crumb & Clarkson, Biophysical Journal, 57(3): 589, 1990). An Axopatch 1-B amplifier (Axon Instruments, Foster City, Calif.) was used for whole-cell voltage clamping. Creation of voltage clamp pulses and data acquisition were controlled by a PC running pClamp software (version 9.2, Axon Instruments). INa was elicited by a 40 ms pulse to −20 mV from a holding potential of −65 mV. Pacing rates of 0.1 and 3 Hz were examined. […]. Four concentrations of each test compound were added to the cell in a cumulative manner starting with the lowest test concentration. Each cell served as its own control and data are presented as % reduction of current amplitude achieved in the presence of drug. A nonlinear curve fitting routine was utilized to fit a three-parameter Hill equation to the results using MicroCal Origin, version 6.0 software. The equation was: […]
(In general: The patch-clamp technique gives a direct electrical read-out from membranes.)

For series [3], the target named is T2, cloned human hERG channel (Homo sapiens, UniProt Q12809).
T2 construct: expressed in transfected cells; host or cells: HEK cells
As to the kind of experiment: In vitro effect on hERG channels, whole-cell patch clamp in HEK cells. As to conditions: 37 °C, read-out: IhERG, 0.1 HZ, IC50. In kind it is cell-based. The protocol: Electrophysiological measurements of hERG current were made in vitro to assess the hERG block produced by certain compounds disclosed herein. hERG currents were measured in HEK cells expressing the cloned human hERG channel using the whole-cell variant of the patch clamp method. Experiments were performed at 37±1° C. An Axopatch 1-B amplifier (Axon Instruments, Foster City, Calif.) was used for whole-cell voltage clamping. Creation of voltage clamp pulses and data acquisition was controlled by a PC running pClamp software (version 9.2, Axon Instruments). After rupture of the cell membrane (entering whole-cell mode), current kinetics and amplitudes were allowed to stabilize for 3-5 minutes as the cell was dialyzed with internal solution and paced at 0.1 Hz. Cells were depolarized to +10 mV for 500 ms from a holding potential of −75 mV and peak hERG current was measured as the maximum outward deflection of the tail current elicited upon return to −40 mV (pacing rate=0.1 Hz). Four concentrations of each test compound were added to the cell in a cumulative manner starting with the lowest test concentration. Each cell served as its own control and data are presented as % reduction of current amplitude achieved in the presence of drug.
A nonlinear curve fitting routine was utilized to fit a three-parameter Hill equation to the results using MicroCal Origin, version 6.0 software. The equation was: […]
(In general: hERG is a cardiac potassium channel; its block is linked to QT prolongation.)

T1 sequence (P23975 whole entry): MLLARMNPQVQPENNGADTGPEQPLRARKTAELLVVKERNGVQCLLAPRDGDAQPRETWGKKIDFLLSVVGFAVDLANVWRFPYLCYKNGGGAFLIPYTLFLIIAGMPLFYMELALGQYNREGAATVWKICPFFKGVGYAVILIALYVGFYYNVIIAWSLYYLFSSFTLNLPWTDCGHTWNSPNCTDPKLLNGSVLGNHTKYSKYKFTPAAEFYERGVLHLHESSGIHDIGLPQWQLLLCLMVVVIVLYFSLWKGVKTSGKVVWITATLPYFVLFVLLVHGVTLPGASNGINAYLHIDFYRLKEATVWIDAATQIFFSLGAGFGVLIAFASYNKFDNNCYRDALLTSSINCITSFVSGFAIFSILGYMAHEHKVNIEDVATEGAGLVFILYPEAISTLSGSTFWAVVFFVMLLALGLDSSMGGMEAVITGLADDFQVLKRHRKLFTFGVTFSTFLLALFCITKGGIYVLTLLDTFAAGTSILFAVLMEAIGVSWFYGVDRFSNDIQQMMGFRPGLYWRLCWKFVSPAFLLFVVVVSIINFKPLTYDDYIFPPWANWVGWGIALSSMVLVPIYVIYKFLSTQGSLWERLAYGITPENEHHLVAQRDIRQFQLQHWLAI
T2 sequence (Q12809 whole entry): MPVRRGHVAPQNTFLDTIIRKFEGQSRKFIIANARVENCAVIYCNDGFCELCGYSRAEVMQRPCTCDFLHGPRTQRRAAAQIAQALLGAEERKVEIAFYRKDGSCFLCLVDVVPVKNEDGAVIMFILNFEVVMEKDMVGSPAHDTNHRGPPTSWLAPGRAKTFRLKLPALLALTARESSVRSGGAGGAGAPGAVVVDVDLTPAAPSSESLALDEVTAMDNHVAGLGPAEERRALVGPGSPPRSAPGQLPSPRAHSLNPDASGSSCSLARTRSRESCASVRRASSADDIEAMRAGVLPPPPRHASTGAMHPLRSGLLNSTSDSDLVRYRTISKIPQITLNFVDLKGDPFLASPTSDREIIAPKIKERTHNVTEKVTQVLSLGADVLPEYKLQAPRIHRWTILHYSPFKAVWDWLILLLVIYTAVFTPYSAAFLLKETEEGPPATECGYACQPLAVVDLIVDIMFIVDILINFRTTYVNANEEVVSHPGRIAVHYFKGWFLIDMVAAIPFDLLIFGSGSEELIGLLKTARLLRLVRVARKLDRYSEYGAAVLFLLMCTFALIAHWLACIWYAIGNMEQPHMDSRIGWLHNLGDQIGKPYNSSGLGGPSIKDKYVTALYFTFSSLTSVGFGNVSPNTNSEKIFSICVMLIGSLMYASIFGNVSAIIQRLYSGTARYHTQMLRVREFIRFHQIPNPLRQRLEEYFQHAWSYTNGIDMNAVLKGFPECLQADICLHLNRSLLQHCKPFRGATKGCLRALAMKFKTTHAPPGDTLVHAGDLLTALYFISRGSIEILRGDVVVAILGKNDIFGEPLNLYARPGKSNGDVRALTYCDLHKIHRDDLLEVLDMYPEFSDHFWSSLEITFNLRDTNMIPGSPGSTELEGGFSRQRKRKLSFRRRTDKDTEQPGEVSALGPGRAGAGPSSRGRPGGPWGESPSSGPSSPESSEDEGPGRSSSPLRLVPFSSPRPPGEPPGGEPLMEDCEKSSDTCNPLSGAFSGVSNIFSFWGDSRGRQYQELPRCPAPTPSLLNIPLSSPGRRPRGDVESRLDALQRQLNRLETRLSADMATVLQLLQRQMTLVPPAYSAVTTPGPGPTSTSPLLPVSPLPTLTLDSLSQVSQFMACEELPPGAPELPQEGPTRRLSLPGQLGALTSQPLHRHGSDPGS

Broadly, the Ki is a measure of affinity in units of concentration, obtained from inhibition or displacement. What is called IC50 is the concentration at which inhibition is half-maximal. With “5-(3-Dimethylamino-propylidene)-10,11-dihydro-5H-dibenzo[a,d]cyclohept-E-en-2-OmPEG6 hydrochloride salt”, the Ki in series [1] (Table 1) was 35.5 µM. For the same compound, the IC50 in series [2] (Table 1, pacing rate 3 Hz) came out at 16.3 µM; in series [3] (Table 1, pacing rate 0.1 Hz) it was 61.5 µM.
On to “5-(3-Dimethylamino-propylidene)-10,11-dihydro-5H-dibenzo[a,d]cyclohept-Z-en-2-OmPEG6 hydrochloride salt”, for which the Ki in series [1] (Table 1) stood at 37.7 µM. Also, the IC50 is 12.4 µM in series [2] (Table 1, pacing rate 3 Hz) and 8.1 µM in series [3] (Table 1, pacing rate 0.1 Hz).
In the same order, the values of `COCCOCCOCCOCCOc1ccc2c(c1)CCc1ccccc1/C2=C\CCN(C)C` [5-(3-Dimethylamino-propylidene)-10,11-dihydro-5H-dibenzo[a,d]cyclohept-E-en-2-OmPEG4 hydrochloride salt] are 60.8 µM, 6.8 µM and 5.8 µM.
In the same order, the values of `COCCOCCOCCOCCOCCOCCOCCOCCOc1ccc2c(c1)CCc1ccccc1/C2=C\CCN(C)C` [5-(3-Dimethylamino-propylidene)-10,11-dihydro-5H-dibenzo[a,d]cyclohept-E-en-2-OmPEG8 hydrochloride salt] are 62.9 µM, 23.4 µM and 2.2 µM.
In the same order, the values of `COCCOCCOCCOCCOc1ccc2c(c1)CCc1ccccc1/C2=C/CCN(C)C` [5-(3-Dimethylamino-propylidene)-10,11-dihydro-5H-dibenzo[a,d]cyclohept-Z-en-2-OmPEG4 hydrochloride salt] are 21.2 µM, 12.8 µM and 24.9 µM.
As for `COCCOCCOCCOCCOCCOCCOCCOCCOc1ccc2c(c1)CCc1ccccc1/C2=C/CCN(C)C` [5-(3-Dimethylamino-propylidene)-10,11-dihydro-5H-dibenzo[a,d]cyclohept-Z-en-2-OmPEG8 hydrochloride salt], the Ki in series [1] (Table 1) was 646 µM. Also, the IC50 in series [2] (Table 1, pacing rate 3 Hz) turned out to be 16.9 µM; in series [3] (Table 1, pacing rate 0.1 Hz), 26.4 µM.
`CN(C)CC/C=C1\c2ccccc2CCc2cc(O)ccc21` [(E)-5-(3-(dimethylamino)propylidene)-10,11-dihydro-5H-dibenzo[a,d][7]annulen-2-ol, reference compound]: the Ki in series [1] (Table 1) is 0.16 µM.
As to `CN(C)CC/C=C1\c2ccccc2C[C@@H](O)c2ccccc21` [(R)-5-(3-dimethylamino-propylidene)-10,11-dihydro-5H-dibenzo[a,d]cyclohept-E-en-10-ol, reference compound], in series [1] (Table 2), the Ki was 2.53 µM. Also, the IC50 in series [2] (Table 2, pacing rate 3 Hz) is 6.2 µM; in series [3] (Table 2, pacing rate 0.1 Hz), 18 µM.
Consider `CN(C)CC/C=C1/c2ccccc2C[C@@H](O)c2ccccc21` [(R)-5-(3-dimethylamino-propylidene)-10,11-dihydro-5H-dibenzo[a,d]cyclohept-Z-en-10-ol, reference compound], for which the Ki in series [1] (Table 3) is 6.28 µM. For the same compound, the IC50 in series [3] (Table 3, pacing rate 0.1 Hz) was determined as 4.1 µM.
Regarding `COCCO[C@@H]1Cc2ccccc2/C(=C\CCN(C)C)c2ccccc21` [(R)-5-(3-dimethylamino-propylidene)-10-OmPEG1-10,11-dihydro-5H-dibenzo[a,d]cyclohept-E-ene trifluoroacetate salt], in series [1] (Table 2), the Ki worked out at 4.45 µM. In series [3] (Table 2, pacing rate 0.1 Hz), the IC50 is 12.1 µM.
In the same order, the values of `COCCOCCO[C@@H]1Cc2ccccc2/C(=C\CCN(C)C)c2ccccc21` [(R)-5-(3-dimethylamino-propylidene)-10-OmPEG2-10,11-dihydro-5H-dibenzo[a,d]cyclohept-E-ene trifluoroacetate salt] are 49.1 µM and 14 µM.
Turning to `COCCOCCOCCOCCO[C@@H]1Cc2ccccc2/C(=C\CCN(C)C)c2ccccc21` [(R)-5-(3-dimethylamino-propylidene)-10-OmPEG4-10,11-dihydro-5H-dibenzo[a,d]cyclohept-E-ene trifluoroacetate salt], the Ki in series [1] (Table 2) was 28.1 µM. Moreover, the IC50 in series [2] (Table 2, pacing rate 3 Hz) stood at 21.3 µM; in series [3] (Table 2, pacing rate 0.1 Hz), 39.9 µM.
On to `COCCOCCOCCOCCO[C@@H]1Cc2ccccc2/C(=C/CCN(C)C)c2ccccc21` [(R)-5-(3-dimethylamino-propylidene)-10-OmPEG4-10,11-dihydro-5H-dibenzo[a,d]cyclohept-Z-ene trifluoroacetate salt], for which the Ki in series [1] (Table 3) was 30.6 µM. Moreover, the IC50 in series [3] (Table 3, pacing rate 0.1 Hz) turned out to be 21.5 µM.
Take `COCCOCCOCCOCCOCCOCCO[C@@H]1Cc2ccccc2/C(=C\CCN(C)C)c2ccccc21` [(R)-5-(3-dimethylamino-propylidene)-10-OmPEG6-10,11-dihydro-5H-dibenzo[a,d]cyclohept-E-ene trifluoroacetate salt]: in series [1] (Table 2), the Ki was determined as 60.4 µM. The IC50 in series [2] (Table 2, pacing rate 3 Hz) was 8.1 µM; in series [3] (Table 2, pacing rate 0.1 Hz) it was 37.9 µM.
With `COCCOCCOCCOCCOCCOCCO[C@@H]1Cc2ccccc2/C(=C/CCN(C)C)c2ccccc21` [(R)-5-(3-dimethylamino-propylidene)-10-OmPEG6-10,11-dihydro-5H-dibenzo[a,d]cyclohept-Z-ene trifluoroacetate salt], the Ki in series [1] (Table 3) worked out at 31.3 µM. Moreover, the IC50 in series [3] (Table 3, pacing rate 0.1 Hz) is 18.9 µM.
In the same order, the values of `COCCOCCOCCOCCOCCOCCOCCOCCO[C@@H]1Cc2ccccc2/C(=C/CCN(C)C)c2ccccc21` [(R)-5-(3-dimethylamino-propylidene)-10-OmPEG8-10,11-dihydro-5H-dibenzo[a,d]cyclohept-Z-ene trifluoroacetate salt] are 4.37 µM and over 100 µM.
In the same order, the values of `CN(C)CC/C=C1/c2ccccc2C[C@H](O)c2ccccc21` [(S)-5-(3-Dimethylamino-propylidene)-10,11-dihydro-5H-dibenzo[a,d]cyclohept-Z-en-10-ol, reference compound] are 0.97 µM and 7.2 µM.
In the same order, the values of `COCCOCCOCCOCCO[C@H]1Cc2ccccc2/C(=C/CCN(C)C)c2ccccc21` [(S)-5-(3-dimethylamino-propylidene)-10-OmPEG4-10,11-dihydro-5H-dibenzo[a,d]cyclohept-Z-ene trifluoroacetate salt] are 27.4 µM and 11.5 µM.
Take `COCCOCCOCCOCCOCCOCCO[C@H]1Cc2ccccc2/C(=C/CCN(C)C)c2ccccc21` [(S)-5-(3-dimethylamino-propylidene)-10-OmPEG6-10,11-dihydro-5H-dibenzo[a,d]cyclohept-Z-ene trifluoroacetate salt]: the Ki in series [1] (Table 3) came to 22.1 µM. Besides, the IC50 in series [3] (Table 3, pacing rate 0.1 Hz) was determined as 38.3 µM.
As to `COCCOCCOCCOCCOCCOCCOCCOCCO[C@H]1Cc2ccccc2/C(=C/CCN(C)C)c2ccccc21` [(S)-5-(3-dimethylamino-propylidene)-10-OmPEG8-10,11-dihydro-5H-dibenzo[a,d]cyclohept-Z-ene trifluoroacetate salt], the Ki in series [1] (Table 3) was 2.99 µM. Besides, the IC50 in series [3] (Table 3, pacing rate 0.1 Hz) worked out at 32.8 µM.
Consider `CN(C)CCC=C1c2ccccc2CCc2ccccc21` [Amitriptyline, reference compound], for which the IC50 in series [2] (Table 1, pacing rate 3 Hz) was found to be 7.1 µM; in series [2] (Table 2, pacing rate 3 Hz), 7.1 µM.
